The target of the experiment is T1, STK16 (PKL12) (Homo sapiens, UniProt O75716).
T1 construct: purchased Thermo Fisher Scientific (Life Technologies) SelectScreen
Put plainly: SelectScreen LanthaScreen. The experiment is classed as binding. The conditions noted are these: read-out: % displacement. The gist of the method: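 NU5455 was profiled across the SelectScreen Broad panel of kinase activity and binding assays. Z'LYTE reactions such as CSF1R ran at apparent Km ATP, while the Adapta CAMK1 assay used ATP listed as 10. Values are given as percent.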
(TR-FRET usually uses a lanthanide donor and a delayed reading to cut background.)

This note sets out measurements from paper PMC6934184, “Selective DNA-PKcs inhibition extends the therapeutic index of localized radiotherapy and chemotherapy” (The Journal of Clinical Investigation, 2019).

The structures appear in SMILES notation.

T1 sequence (O75716 whole entry): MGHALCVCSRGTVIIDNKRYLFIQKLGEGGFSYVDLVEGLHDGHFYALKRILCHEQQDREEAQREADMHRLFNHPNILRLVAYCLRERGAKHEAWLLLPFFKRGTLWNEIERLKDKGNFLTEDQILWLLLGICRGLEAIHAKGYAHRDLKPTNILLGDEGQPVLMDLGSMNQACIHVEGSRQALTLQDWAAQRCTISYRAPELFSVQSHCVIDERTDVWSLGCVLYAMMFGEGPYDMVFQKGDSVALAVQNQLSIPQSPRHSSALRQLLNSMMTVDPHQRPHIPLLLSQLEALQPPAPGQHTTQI

As to `CN(C(=O)CN1CCOCC1)c1ccc2sc3c(-c4cccc5c(=O)cc(N6CC7CCC(C6)O7)oc45)cccc3c2c1` [NU5455], the inhibition at 1 µM was determined as 10.5%.
